Data as given in patent US8906928B2, “Substituted pyrazolo-pyrrolo-pyridine-dione compounds” (ArQule, Inc., priority 2009, dated 2014).

Key:
NCI-H1299 = experiment: MTS assay (cell growth inhibition), NCI-H1299; assay type: cell-based; conditions: NCI-H1299 cells, 72 hours incubation with test compound; concentration not given
Summary of the method: (§1)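 First, seed 3000 cells per well in low-serum (1% FBS) DMEM and culture 18 h. Next, add compounds prepared at 300× in DMSO and diluted 1:40 in DMEM; incubate 72 h. Finally, add MTS/PMS for 4 h and measure absorbance at 492 nm.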

DLD-1 = experiment: MTS assay (cell growth inhibition), DLD-1; assay type: cell-based; conditions: DLD-1 cells, 72 hours incubation with test compound; concentration not given
Summary of the method: as §1

PC-3 = experiment: MTS assay (cell growth inhibition), PC-3; assay type: cell-based; conditions: PC-3 cells, 72 hours incubation with test compound; concentration not given
Summary of the method: as §1

Kato III = experiment: MTS assay (cell growth inhibition), Kato III; assay type: cell-based; conditions: Kato III cells, 72 hours incubation with test compound; concentration not given
Summary of the method: as §1

MDA-MB = experiment: MTS assay (cell growth inhibition), MDA-MB; assay type: cell-based; conditions: MDA-MB cells, 72 hours incubation with test compound; concentration not given
Summary of the method: as §1

PACA-2 = experiment: MTS assay (cell growth inhibition), PACA-2; assay type: cell-based; conditions: PACA-2 cells, 72 hours incubation with test compound; concentration not given
Summary of the method: as §1

Structure (SMILES)	melting point [°C]	MTS CELL KILL DATA (% INHIBITION) NCI-H1299 (NCI-H1299)	MTS CELL KILL DATA (% INHIBITION) DLD-1 (DLD-1)	MTS CELL KILL DATA (% INHIBITION) PC-3 (PC-3)	MTS CELL KILL DATA (% INHIBITION) Kato III (Kato III)	MTS CELL KILL DATA (% INHIBITION) MDA-MB (MDA-MB)	MTS CELL KILL DATA (% INHIBITION) PACA-2 (PACA-2)
O=C1NC(=O)c2c1cnc1[nH]ncc21 [Example 1, pyrazolo[3,4-b]pyrrolo[3,4-d]pyridine-6,8(3H,7H)-dione]	285 to 300	–	–	–	–	–	–
O=C1c2cnc3[nH]ncc3c2C(=O)N1CCc1ccccc1 [Example 2, 7-(2-phenylethyl)pyrazolo[3,4-b]pyrrolo[3,4-d]pyridine-6,8(3H,7H)-dione]	237 to 239	A (A = 80-100% INHIBITION)	A (A = 80-100% INHIBITION)	A (A = 80-100% INHIBITION)	A (A = 80-100% INHIBITION)	A (A = 80-100% INHIBITION)	A (A = 80-100% INHIBITION)
N#Cc1ccc(CN2C(=O)c3cnc4[nH]ncc4c3C2=O)cc1 [Example 41, 4-[(6,8-dioxo-6,8-dihydropyrazolo[3,4-b]pyrrolo[3,4-d]pyridin-7(3H)-yl)methyl]benzonitrile]	293 to 295	–	–	–	–	–	–
O=C1c2cnc3[nH]ncc3c2C(=O)N1CC1CCNCC1 [Example 57, 7-(piperidin-4-ylmethyl)pyrazolo[3,4-b]pyrrolo[3,4-d]pyridine-6,8(3H,7H)-dione]	> 300	–	–	–	–	–	–
O=C1c2cnc3[nH]ncc3c2C(=O)N1CCC1CCNCC1 [Example 70, 7-(2-piperidin-4-ylethyl)pyrazolo[3,4-b]pyrrolo[3,4-d]pyridine-6,8(3H,7H)-dione]	> 300	–	–	–	–	–	–
N#Cc1ccccc1CN1C(=O)c2cnc3[nH]ncc3c2C1=O [Example 108, 2-[(6,8-dioxo-6,8-dihydropyrazolo[3,4-b]pyrrolo[3,4-d]pyridin-7(3H)-yl)methyl]benzonitrile]	285 to 287	–	–	–	–	–	–
CC(C)(C)OC(=O)N1CCC(CN2C(=O)c3cnc4[nH]ncc4c3C2=O)CC1 [Example 140, tert-butyl 4-[(6,8-dioxo-6,8-dihydropyrazolo[3,4-b]pyrrolo[3,4-d]pyridin-7(3H)-yl)methyl]piperidine-1-carboxylate]	134 to 137	C (C = <50% INHIBITION)	C (C = <50% INHIBITION)	A (A = 80-100% INHIBITION)	C (C = <50% INHIBITION)	A (A = 80-100% INHIBITION)	A (A = 80-100% INHIBITION)
O=C1c2cnc3[nH]ncc3c2C(=O)N1Cc1ccccc1-c1cccc(F)c1F [Example 141, 7-[(2′,3′-difluorobiphenyl-2-yl)methyl]pyrazolo[3,4-b]pyrrolo[3,4-d]pyridine-6,8(3H,7H)-dione]	93 to 100	–	–	–	–	–	–
CC(c1ccccc1-c1ccccc1)N1C(=O)c2cnc3[nH]ncc3c2C1=O (stereo not drawn) [Example 144, 7-(1-biphenyl-2-ylethyl)pyrazolo[3,4-b]pyrrolo[3,4-d]pyridine-6,8(3H,7H)-dione]	161 to 163	–	–	–	–	–	–
O=C1c2cnc3[nH]ncc3c2C(=O)N1Cc1ccccc1-c1ccc(F)cc1F [Example 145, 7-[(2′,4′-difluorobiphenyl-2-yl)methyl]pyrazolo[3,4-b]pyrrolo[3,4-d]pyridine-6,8(3H,7H)-dione]	199 to 200	–	–	–	–	–	–
COc1cccc(-c2ccccc2CN2C(=O)c3cnc4[nH]ncc4c3C2=O)c1 [Example 147, 7-[(3′-methoxybiphenyl-2-yl)methyl]pyrazolo[3,4-b]pyrrolo[3,4-d]pyridine-6,8(3H,7H)-dione]	99 to 100	–	–	–	–	–	–
O=C1c2cnc3[nH]nc(-c4cc5ccccc5o4)c3c2C(=O)N1CCc1ccccc1 [Example 158, 1-(1-benzofuran-2-yl)-7-(2-phenylethyl)pyrazolo[3,4-b]pyrrolo[3,4-d]pyridine-6,8(3H,7H)-dione]	–	A (A = 80-100% INHIBITION)	B (B = 50-79% INHIBITION)	B (B = 50-79% INHIBITION)	A (A = 80-100% INHIBITION)	B (B = 50-79% INHIBITION)	C (C = <50% INHIBITION)
CSc1cccc(-c2n[nH]c3ncc4c(c23)C(=O)N(CCc2ccccc2)C4=O)c1 [Example 159, 1-[3-(methylsulfanyl)phenyl]-7-(2-phenylethyl)pyrazolo[3,4-b]pyrrolo[3,4-d]pyridine-6,8(3H,7H)-dione]	–	A (A = 80-100% INHIBITION)	A (A = 80-100% INHIBITION)	A (A = 80-100% INHIBITION)	A (A = 80-100% INHIBITION)	A (A = 80-100% INHIBITION)	A (A = 80-100% INHIBITION)
NC(=O)c1ccc(-c2n[nH]c3ncc4c(c23)C(=O)N(CCc2ccccc2)C4=O)cc1 [Example 160, 4-[6,8-dioxo-7-(2-phenylethyl)-3,6,7,8-tetrahydropyrazolo[3,4-b]pyrrolo[3,4-d]pyridin-1-yl]benzamide]	–	B (B = 50-79% INHIBITION)	A (A = 80-100% INHIBITION)	A (A = 80-100% INHIBITION)	A (A = 80-100% INHIBITION)	A (A = 80-100% INHIBITION)	A (A = 80-100% INHIBITION)
O=C1c2cnc3[nH]nc(-c4ccc(F)c(F)c4)c3c2C(=O)N1CCc1ccccc1 [Example 162, 1-(3,4-difluorophenyl)-7-(2-phenylethyl)pyrazolo[3,4-b]pyrrolo[3,4-d]pyridine-6,8(3H,7H)-dione]	–	C (C = <50% INHIBITION)	C (C = <50% INHIBITION)	C (C = <50% INHIBITION)	C (C = <50% INHIBITION)	C (C = <50% INHIBITION)	B (B = 50-79% INHIBITION)
O=C1c2cnc3[nH]nc(-c4cccc(F)c4)c3c2C(=O)N1CCc1ccccc1 [Example 165, 1-(3-fluorophenyl)-7-(2-phenylethyl)pyrazolo[3,4-b]pyrrolo[3,4-d]pyridine-6,8(3H,7H)-dione]	–	C (C = <50% INHIBITION)	A (A = 80-100% INHIBITION)	A (A = 80-100% INHIBITION)	A (A = 80-100% INHIBITION)	A (A = 80-100% INHIBITION)	A (A = 80-100% INHIBITION)
CC(C)(C)c1ccc(-c2n[nH]c3ncc4c(c23)C(=O)N(CCc2ccccc2)C4=O)cc1 [Example 166, 1-(4-tert-butylphenyl)-7-(2-phenylethyl)pyrazolo[3,4-b]pyrrolo[3,4-d]pyridine-6,8(3H,7H)-dione]	–	C (C = <50% INHIBITION)	A (A = 80-100% INHIBITION)	C (C = <50% INHIBITION)	C (C = <50% INHIBITION)	A (A = 80-100% INHIBITION)	B (B = 50-79% INHIBITION)
CC(=O)Nc1cccc(-c2n[nH]c3ncc4c(c23)C(=O)N(CCc2ccccc2)C4=O)c1 [Example 167, N-{3-[6,8-dioxo-7-(2-phenylethyl)-3,6,7,8-tetrahydropyrazolo[3,4-b]pyrrolo[3,4-d]pyridin-1-yl]phenyl}acetamide]	–	A (A = 80-100% INHIBITION)	A (A = 80-100% INHIBITION)	A (A = 80-100% INHIBITION)	A (A = 80-100% INHIBITION)	A (A = 80-100% INHIBITION)	A (A = 80-100% INHIBITION)
O=C1c2cnc3[nH]nc(-c4ccccc4)c3c2C(=O)N1Cc1c(F)cccc1Cl [Example 169, 7-(2-chloro-6-fluorobenzyl)-1-phenylpyrazolo[3,4-b]pyrrolo[3,4-d]pyridine-6,8(3H,7H)-dione]	224 to 228	–	–	–	–	–	–
